Assay results reported in patent US20140295012A1, “LATENT HUMAN IMMUNODEFICIENCY VIRUS REACTIVATION” (priority 2011, published 2014).

Columns and labels:
[1] = test system: latently HIV-1 infected CA5 T cells; type: cell-based; settings: CA5 cells pretreated with increasing concentrations
Protocol: Infection levels in the cell cultures were monitored by flow cytometric analysis of EGFP expression. Flow cytometric analysis was performed on a GUAVA EasyCyte (Millipore; Billerica, Mass.), or a LSRII (Becton & Dickinson; Franklin Lakes, N.J.).
Bacterial growth. Bacteria from various sources were isolated on TSA II agar plates containing 5% sheep blood. Bacterial isolates were then grown in RPMI 1640 medium supplemented with 10% FBS. After two days of incubation at 37° C. bacteria were pelleted and resuspended in RPMI medium to an optical density (OD600) of 8, aliquoted and frozen at −80° C. Unless otherwise indicated, Massilia timonae was grown in RPMI 1640 medium supplemented with 10% FBS. Typically, medium was inoculated with Massilia timonae from frozen stocks to an OD600 of 0.01. After 48 hours at 37° C., the culture was centrifuged at 3200 g to separate bacteria from the culture medium. Bacteria were resuspended in fresh medium to an OD600 of 8 and frozen to be used as references and stock cultures. The supernatant was then centrifuged at 10,000 g for 20 minutes and sterilized by passage through a 0.2 μm PVDF filter with low protein binding ability. HRF activity was determined by its ability to reactivate latent HIV-1 infection in CA5 cells. Only supernatants of which 6 μl reactivated infection in at least 60% of CA5 cells were used to study HRF properties.
Flow cytometry. Infection levels in the cell cultures were monitored by flow cytometric (FCM) analysis of GFP expression. FCM analysis was performed on a GUAVA EasyCyte (GUAVA Technologies, Inc.; Millipore; Billerica, Mass.) and a BD FACSCalibur or a LSRII (Becton & Dickinson; Franklin Lakes, N.J.). Cell sorting experiments were performed using a FACSAria™ Flow Cytometer (Becton&Dickinson). Data analysis was performed using either CellQuest (Becton&Dickinson) or GUAVA Express (GUAVA Technologies, Inc.).
To identify the optimal concentration of dactinomycin, CA5 T cells were pretreated with increasing concentrations of dactinomycin (0.0001 and 1 μg/ml), and then left untreated or stimulated with a sub-optimal concentration of HRF or TNF-α. Representative results for stimulation with HRF are depicted in FIG. 3. The chosen HRF concentration has only minimal HIV-1 reactivating effect by itself (15% reactivation over background). Twenty four hours after activator addition, levels of HIV-1 reactivation were determined as the percentage of GFP-positive cells using flow cytometric analysis, which allowed for the simultaneous determination of cell viability. […] Optimal pretreatment time was 18 hours. Maximum reactivation effects were seen 48 hours after stimulation.

[2] = test system: latently HIV-1 infected primary T cells; test: Reactivation of latent HIV-1 infection in primary T cells (GFP); type: cell-based; settings: 24 hours
Protocol: Latently HIV-1 infected primary T cells were treated for 24 hours with aclacinomycin (ACM) or dactinomycin (ActD), or with the anti-CD3 monoclonal antibody (mAb) OKT3. Reactivation levels were determined as a percentage of GFP-positive cells 24 hours after stimulation. Viability of the cells correlates with the size of the symbol.
To determine if aclacinomycin or dactinomycin were capable of reactivating a latent HIV-1 infection in primary T cells, latently HIV-1 infected primary T cells were treated with aclacinomycin or dactinomycin or with the anti-CD3 monoclonal antibody OKT3 for 24 hours. Reactivation of the latent HIV-1 infection was observed by increasing levels of GFP fluorescence.

[3] = biological target: T1, positive transcription elongation factor (P-TEFb), a complex of CDK9 and Cyclin T1 (UniProt P50750 1-372; O60563 1-726); test: glycerol gradient (10-45%) sedimentation of J89GFP cell lysates, Western blot of the fractions with anti-CDK9 and anti-HEXIM-1
T1 construct: also called CDK9/CycT1
T1 sequence (P50750 whole entry, chain 1 of 2): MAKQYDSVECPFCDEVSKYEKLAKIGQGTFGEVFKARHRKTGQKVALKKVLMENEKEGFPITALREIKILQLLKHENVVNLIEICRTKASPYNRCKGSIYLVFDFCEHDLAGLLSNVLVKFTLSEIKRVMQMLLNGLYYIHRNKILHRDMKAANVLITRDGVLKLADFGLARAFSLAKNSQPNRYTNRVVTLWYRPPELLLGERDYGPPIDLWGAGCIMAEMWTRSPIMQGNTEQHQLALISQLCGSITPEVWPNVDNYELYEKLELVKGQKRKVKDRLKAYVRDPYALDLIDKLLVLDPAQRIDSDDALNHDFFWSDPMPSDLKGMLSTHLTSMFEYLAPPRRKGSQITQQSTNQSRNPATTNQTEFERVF
T1 sequence (O60563 whole entry, chain 2 of 2): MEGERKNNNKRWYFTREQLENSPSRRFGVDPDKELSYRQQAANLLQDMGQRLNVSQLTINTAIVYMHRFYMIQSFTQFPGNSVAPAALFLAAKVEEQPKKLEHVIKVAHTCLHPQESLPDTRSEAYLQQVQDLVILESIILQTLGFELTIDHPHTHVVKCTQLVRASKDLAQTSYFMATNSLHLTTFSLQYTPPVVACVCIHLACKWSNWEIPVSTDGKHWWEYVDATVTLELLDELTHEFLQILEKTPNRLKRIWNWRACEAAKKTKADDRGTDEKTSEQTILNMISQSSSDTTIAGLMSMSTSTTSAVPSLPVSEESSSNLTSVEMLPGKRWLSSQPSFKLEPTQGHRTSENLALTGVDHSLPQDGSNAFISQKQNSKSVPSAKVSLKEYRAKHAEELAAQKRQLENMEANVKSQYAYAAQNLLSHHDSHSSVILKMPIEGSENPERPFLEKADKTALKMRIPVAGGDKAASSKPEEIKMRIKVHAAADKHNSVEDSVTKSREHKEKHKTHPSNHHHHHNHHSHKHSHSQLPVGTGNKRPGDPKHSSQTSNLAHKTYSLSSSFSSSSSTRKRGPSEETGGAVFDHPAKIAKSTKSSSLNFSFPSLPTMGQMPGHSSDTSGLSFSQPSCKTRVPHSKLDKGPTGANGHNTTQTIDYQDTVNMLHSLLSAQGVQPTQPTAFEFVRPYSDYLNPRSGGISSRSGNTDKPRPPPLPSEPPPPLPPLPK
Protocol: Each gradient fraction was separated on a 10% SDS-PAGE gel and transferred by Western blot. […] Band densities were determined using ImageJ and are presented as relative band density. […] Band densities were determined using ImageJ and are presented as relative band density.
Fractions were resolved on 10% SDS-PAGE and transferred to polyvinylidene fluoride membrane.
Each gradient fraction was separated on a SDS-PAGE gel and subjected to Western blotting.

| Molecule | priming effect on HIV-1 reactivation by sub-optimal dose of HRF [1] | reactivation of latent HIV-1 infection [2] | binding result [3] |
| --- | --- | --- | --- |
| CC[C@@]1(O)C[C@H](O[C@H]2C[C@H](N(C)C)[C@H](O[C@H]3C[C@H](O)[C@H](O[C@H]4CCC(=O)[C@H](C)O4)[C@H](C)O3)[C@H](C)O2)c2c(cc3c(c2O)C(=O)c2c(O)cccc2C3=O)[C@H]1C(=O)OC [aclacinomycin] | strong priming effect | capable of reactivating latent HIV-1 infections | – |
| HEXIM-1 (other, UniProt O94992 1-359, looked up) MAEPFLSEYQHQPQTSNCTGAAAVQEELNPERPPGAEERVPEEDSRWQSRAFPQLGGRPGPEGEGSLESQPPPLQTQACPESSCLREGEKGQNGDDSSAGGDFPPPAEVEPTPEAELLAQPCHDSEASKLGAPAAGGEEEWGQQQRQLGKKKHRRRPSKKKRHWKPYYKLTWEEKKKFDEKQSLRASRIRAEMFAKGQPVAPYNTTQFLMDDHDQEEPDLKTGLYSKRAAAKSDDTSDDDFMEEGGEEDGGSDGMGGDGSEFLQRDFSETYERYHTESLQNMSKQELIKEYLELEKCLSRMEDENNRLRLESKRLGGDDARVRELELELDRLRAENLQLLTENELHRQQERAPLSKFGD | – | – | binds |
